Results on 12 compounds are retold here after patent publication US4556560A, “Methods for the treatment and prophylaxis of diaper rash and diaper dermatitis” (The Procter & Gamble Company, priority 1983, dated 1985).

The test system of series [1] is primary skin irritation caused by prolonged contact of a urine/feces mixture under occluded conditions. Kind of series: Hairless mouse patch test: feces/urea homogenate patched with lipase-inhibiting agent solution (Examples I-V). The class given is in vivo, hairless mice. The source says: (§1) This method may be used to determine the utility and effect of lipase-inhibiting agents, or compositions containing these agents, on primary skin irritation caused by prolonged contact of a urine/feces mixture under occluded conditions.
(§2) Male, hairless mice at 8-12 weeks of age are used for the study. The animals are housed individually in plastic shoe box cages for the experiments, and fed Purina® Rodent Laboratory Chow and tap water ad libitum. Mice are assigned numbers during each study which are posted on each cage.
(§3) The mice are cared for, and the room conditions maintained following acceptable animal study conditions.
(§4) Patch treatment compositions are prepared by taking the fecal material to be tested and mixing it with a 2% urea solution at a weight:weight ratio of 1:4 feces:urea. 0.1 ml of the lipase-inhibiting agent solution or composition of the desired concentration is patched along with 0.375 ml of the urine/feces mixture. Patches for the mice are prepared by saturating an absorbent material (such as cotton) with the feces/urine suspension, placing it on the skin and covering it with an impermeable material. For example, this may be done by cutting away the adhesive border from a 37×20 mm Webril pad. The Webril pad will then be cut into quarters to obtain 1 cm^2 patches. Each patch will be saturated with 0.1 ml of the lipase-inhibiting agent solution and 0.375 ml of the urine/feces mixture. The control patch is simply 0.375 ml of the urine/feces mixture. Prior to application of test or control patches, each mouse is anesthetized by placement into a chamber containing ether. The test patch is then placed midline on the mouse back, towards the shoulder, and covered with Blenderm® (3M) tape in order to occlude the patch site. The mouse is next wrapped with Scanpor® tape (Norgeplaster A/S) to secure the patch. After 24 hrs., the initial patch is removed and a fresh patch of test substance or a fresh control is applied, as described above. After 24 hrs., the second patch is removed, thus giving a total occluded patch time of 48 hrs.
(§5) Approximately 1 hr. after removal of the second patch, the test site skin condition is evaluated using the grading scales outlined in the following tables:
(§6) Each animal is examined by two graders, at least one of whom is blind as to the treatments applied. Both graders' scores should be calculated for each of the above categories, as well as a primary Irritation Index equalling the sum of scores for each category.
(§7) In Examples I-V, fecal material is mixed with a 2% urea solution at a weight:weight ratio of 1:4 feces:urea, and this homogenate is patched as described above in the Hairless Mouse model with 0.375 ml of this homogenate. The pure homogenate is patched as the control. Where a specific concentration of lipase-inhibiting agent is expressed, the feces/urea homogenate is patched in combination with 0.1 ml of a solution of the described lipase-inhibiting agent solution.

Series [2] deals with lipase. Put plainly: Lipase activity of stool-free, urine-free pure lipase composition with lipase-inhibiting agent (Examples VI, VII). The class given is biochemical. Further details: LIPASE ACTIVITY: unit not given here. Particulars: for % REDUCTION LIPASE ACTIVITY / LIPASE ACTIVITY: pure lipase composition; for inhibition of lipase: inability to provide the critical level of free metal ion Zn++. The procedure:
(§8) For example, the method of commerce available from Harleco® diagnostics utilizes the activity of lipase, i.e., the digestion of triglycerides to diglycerides and monoglycerides, glycerol and free fatty acids. After this digestion is allowed to proceed at the optimal buffered pH, the turbidity is measured spectrophotometrically at 400 nanometers.
In Examples VI and VII, a stool-free and urine-free pure lipase composition of the expressed activity is patched in the Hairless Mouse model as described above. This is the Control. This lipase composition is patched in combination with 0.1 ml of the lipase-inhibiting agent solution at the concentration expressed.
In this Example, a non-stool, no-urine pure lipase composition is patched in the hairless mouse model, and then in combination with a lipase-inhibiting agent at the indicated concentrations.

Series [3] relates to lipase. Kind of series: Relative lipase activity of the feces/urea patch with lipase-inhibiting agent (Examples I, II, IV). The class given is biochemical. Here is the method: as §8, §7
The test system of series [4] is lipase-related skin irritation. Put plainly: Hairless mouse patch test with pure lipase composition (Example VII). The class given is in vivo, hairless mice. Particulars: 100 mM (ZnO, ZnCO3, Zn undecylenate patched as suspensions).
From the text: as §1, §2, §3, §4, §5, §6
In Examples VI and VII, a stool-free and urine-free pure lipase composition of the expressed activity is patched in the Hairless Mouse model as described above. This is the Control. This lipase composition is patched in combination with 0.1 ml of the lipase-inhibiting agent solution at the concentration expressed. […]

For series [5] the following is noted: footnote to Example VII.
For series [6] the following is noted: background statement; cited from earlier work.
[7] abbreviates: Example III, 100 mM, control 4.95 ± 0.45 (control lipase activity 100,000).
[8] abbreviates: Example VI, 50 mM, lipase control 40,320.
Where [9] appears, read: Example VI, 100 mM, lipase control 40,320.
Setting [10] is: Example I, 10 mM, 0.1 ml with 0.375 ml feces/urea homogenate, 48 hrs occluded, control 7.20 ± 0.75.
[11] abbreviates: Example I, 25 mM, 0.1 ml with 0.375 ml feces/urea homogenate, 48 hrs occluded, control 7.20 ± 0.75.
The mark [12] stands for this setting: Example I, 50 mM, 0.1 ml with 0.375 ml feces/urea homogenate, 48 hrs occluded, control 7.20 ± 0.75.
Where [13] appears, read: Example I, 100 mM, 0.1 ml with 0.375 ml feces/urea homogenate, 48 hrs occluded, control 7.20 ± 0.75.
Where [14] appears, read: Example I, 10 mM agent solution, control 6250.
The mark [15] stands for this setting: Example I, 25 mM agent solution, control 6250.
The mark [16] stands for this setting: Example I, 50 mM agent solution, control 6250.
Where [17] appears, read: Example I, 100 mM agent solution, control 6250.
Setting [18] is: Example IV, 10 mM, control 127,500.
Where [19] appears, read: Example IV, 25 mM, control 127,500.
The mark [20] stands for this setting: Example IV, 50 mM, control 127,500.
Where [21] appears, read: Example IV, 100 mM, control 127,500.
Where [22] appears, read: Example V, 100 mM, control 4.45 ± 0.17.
Where [23] appears, read: Example VII, 100 mM (ZnO, ZnCO3, Zn undecylenate patched as suspensions), control 36,750.

As for `[Ca+2].[Cl-].[Cl-]` [CaCl2, reference compound], the “IRRITATION INDEX” value in series [1] (setting [7]) is reported as 3.55 ± 1.10.

In the case of `[Cl][Co][Cl]` [CoCl2, cobalt chloride], the “% REDUCTION LIPASE ACTIVITY” value worked out at 41% in the series with lipase [2] (Example VI, 50 mM) and 81% in the series with lipase [2] (Example VI, 100 mM). Also, the “LIPASE ACTIVITY” value in the series with lipase [2] (setting [8]) was 23,750; with lipase [2] (setting [9]), 7,750.

In the case of `O=S(=O)([O-])[O-].[Cu+2]` [CuSO4, copper sulfate], the “% REDUCTION LIPASE ACTIVITY” value in the series with lipase [2] (Example VI, 50 mM) amounted to 54%; with lipase [2] (Example VI, 100 mM) it was 59%. Besides, the “LIPASE ACTIVITY” value in the series with lipase [2] (setting [8]) is recorded as 18,500; in the series on lipase [2] (setting [9]) it was 16,500.

As for `O.O.O.O.O.O=S(=O)([O-])[O-].[Cu+2]` [CuSO4.5H2 O, copper sulfate pentahydrate], the “IRRITATION INDEX” value in series [1] (setting [10]) is reported as 6.75 ± 1.42; in series [1] (setting [11]), 5.35 ± 2.93; in series [1] (setting [12]), 3.50 ± 3.08; in series [1] (setting [13]) it was 5.50 ± 1.05. In addition, the “RELATIVE LIPASE ACTIVITY” value in the series on lipase [3] (setting [14]) is 4750; in the series with lipase [3] (setting [15]) it was 2250; in the series on lipase [3] (setting [16]), 750; with lipase [3] (setting [17]), 0.

Turning to `O.O.O.O.O.O.[Cl-].[Cl-].[Cl-].[Fe+3]` [FeCl3.6H2 O, iron(III)chloride hexahydrate], the “RELATIVE LIPASE ACTIVITY” value with lipase [3] (setting [18]) is given as 177,500; in the series on lipase [3] (setting [19]) it was 128,750; with lipase [3] (setting [20]), 111,350; in the series on lipase [3] (setting [21]), 6250. Also, the “% REDUCTION LIPASE ACTIVITY” value came to 99% in the series on lipase [2] (Example VI, 50 mM) and 100% in the series with lipase [2] (Example VI, 100 mM). Moreover, the “LIPASE ACTIVITY” value was 500 in the series on lipase [2] (setting [8]) and 0 in the series on lipase [2] (setting [9]).

For the compound `[Cl][La]([Cl])[Cl]` [LaCl3, lanthanum chloride], the “IRRITATION INDEX” value in series [1] (setting [7]) stood at 0 ± 0.

In the case of `[Cl][Sn][Cl]` [SnCl2, tin(II)chloride], the “IRRITATION INDEX” value in series [1] (setting [22]) turned out to be 0.50 ± 0.16. The “% REDUCTION LIPASE ACTIVITY” value with lipase [2] (Example VI, 50 mM) came to 93%; in the series on lipase [2] (Example VI, 100 mM) it was 97%. In addition, the “LIPASE ACTIVITY” value in the series with lipase [2] (setting [8]) is on record as 3,000; with lipase [2] (setting [9]) it was 1,250.

For `C=CCCCCCCCCC(=O)[O-].C=CCCCCCCCCC(=O)[O-].[Zn+2]` [Zn undecylenate], in the series with lipase [2] (setting [23]), the “LIPASE ACTIVITY” value is on record as 10,080. Besides, the “% REDUCTION IN IRRITATION INDEX” value in series [4] is given as 73%.

For `O=C([O-])[O-].[Zn+2]` [ZnCO3, zinc carbonate, reference compound], the “LIPASE ACTIVITY” value in the series on lipase [2] (setting [23]) is 35,000. The inhibition of lipase entry in the series with lipase [2] is “ineffective”. In addition, the “% REDUCTION IN […]” value in series [4] was determined as 5%.

Regarding `[Cl-].[Cl-].[Zn+2]` [ZnCl2, zinc chloride], the “IRRITATION INDEX” value in series [1] (setting [10]) is 6.05 ± 1.23; in series [1] (setting [11]) it was 4.95 ± 1.36; in series [1] (setting [12]) it was 0.80 ± 1.01; in series [1] (setting [13]), 1.15 ± 0.97; in series [1] (Example II, 20 mM, control 6.67 ± 0.94), 3.50 ± 2.44; in series [1] (Example II, 30 mM, control 6.67 ± 0.94) it was 4.87 ± 1.37. Besides, the “IRRITATION INDEX” value is 2.62 ± 1.86 in series [1] (Example II, 40 mM, control 6.67 ± 0.94); 2.54 ± 1.78 in series [1] (Example II, 50 mM, control 6.67 ± 0.94); 1.42 ± 1.62 in series [1] (Example II, 60 mM, control 6.67 ± 0.94); 1.17 ± 1.01 in series [1] (Example II, 70 mM, control 6.67 ± 0.94); 0.55 ± 1.23 in series [1] (setting [7]); 5.55 ± 0.95 in series [1] (Example IV, 10 mM, control 6.15 ± 1.08). For the same compound, the “IRRITATION INDEX” value is listed as 0.50 ± 0.82 in series [1] (Example IV, 25 mM, control 6.15 ± 1.08); 0.45 ± 0.64 in series [1] (Example IV, 50 mM, control 6.15 ± 1.08); 1.75 ± 1.65 in series [1] (Example IV, 100 mM, control 6.15 ± 1.08); 1.85 ± 0.61 in series [1] (setting [22]). The “RELATIVE LIPASE ACTIVITY” value was determined as 5000 with lipase [3] (setting [14]); 0 in the series on lipase [3] (setting [15]); 0 in the series with lipase [3] (setting [16]); 0 in the series with lipase [3] (setting [17]); 500 in the series on lipase [3] (Example II, 20 mM, control 6000); 1250 in the series with lipase [3] (Example II, 30 mM, control 6000). Besides, the “RELATIVE LIPASE ACTIVITY” value with lipase [3] (Example II, 40 mM, control 6000) is 0; with lipase [3] (Example II, 50 mM, control 6000), 0; with lipase [3] (Example II, 60 mM, control 6000) it was 0; in the series on lipase [3] (Example II, 70 mM, control 6000) it was 0; in the series with lipase [3] (setting [18]), 72,500; with lipase [3] (setting [19]), 0. The “RELATIVE LIPASE ACTIVITY” value in the series with lipase [3] (setting [20]) and with lipase [3] (setting [21]) was 0 throughout. Moreover, the “% REDUCTION LIPASE ACTIVITY” value in the series with lipase [2] (Example VI, 50 mM) came to 96%; in the series on lipase [2] (Example VI, 100 mM) it was 98%. The “LIPASE ACTIVITY” value is on record as 1,500 with lipase [2] (setting [8]), 750 in the series on lipase [2] (setting [9]) and 1,250 in the series on lipase [2] (setting [23]). Moreover, the “% REDUCTION IN IRRITATION INDEX” value in series [4] turned out to be 97%.

With `[O]=[Zn]` [ZnO, zinc oxide, reference compound], the “LIPASE ACTIVITY” value with lipase [2] (setting [23]) was 33,000. Moreover, in the series on lipase [2], the inhibition of lipase entry is reported as “ineffective”. In addition, in series [4], the “% REDUCTION IN […]” value came out at 10%. Further, the “concentration of solution the salt is capable of forming” value in series [5] was found to be 20 µM. The solubility in water entry in series [6] is “almost totally insoluble”.

As for Zinc glycerolate, in series [6], the solubility in water result is reported as “insoluble”.
